“And” between values parts separate entries of the source, which are not always exact repeats. Equal values may be shown once.
Point of comparison: `C=Cc1ccc(C(=O)O)cc1` [4-vinylbenzoic acid], melting point 142 °C. Against it:
- N#CCC(=O)c1ccco1 [2-furoylacetonitrile] — lower, 79 °C
- CC(C)(S)[C@@H](N)C(=O)O [penicillamine] — higher, 204 °C
- CCCCCCCCCC [N-decane] — lower, -30 °C
- O=C(O)c1cc(Cl)ccc1Br [2-bromo-5-chlorobenzoic acid] — higher, 154 °C
- OC/C=C\CO [cis-2-butene-1,4-diol] — lower, 7 °C
- O=C(O)c1cc(F)cc(C(F)(F)F)c1 [3-fluoro-5-(trifluoromethyl)benzoic acid] — lower, 104 °C
- O=[N+]([O-])O[C@H]1CO[C@H]2[C@@H]1OC[C@H]2O[N+](=O)[O-] [isosorbide dinitrate] — lower, 70 °C
- Fc1ccc(Br)cc1 [1-bromo-4-fluorobenzene] — lower, -16 °C
- CCCCCCCCCCCCN(CCCCCCCCCCCC)CCCCCCCCCCCC [tri-n-dodecylamine] — lower, 15 °C
- C=CCC1(C(C)C)C(=O)NC(=O)NC1=O [aprobarbital] — higher, 143 °C
- C[Si](C)(C)c1c2c(cc3c1-c1ccccc1OC3)CCCC2=O — higher, 159 °C
- Nc1ccc(N=Nc2ccccc2)cc1 [4-(Phenyldiazenyl)aniline] — lower, 124 °C
- CP(=O)(O)CC[C@@H](N)C(=O)O [2-Amino-4-(Hydroxymethyl-Phosphinyl)Butanoic Acid] — higher, 230 °C
- CC(Cc1oc2c(c3c(c4ccccc42)OC2CC(=O)OC32)c(=O)c1[Si](C)(C)C)O[Si](C)(C)C(C)(C)C (stereo not drawn) — higher, 190 °C
- COC(=O)c1cccc(B(O)O)c1 [3-(methoxycarbonyl)benzeneboronic acid] — lower, 136 °C
- COc1ccc2c(c1)c(CC(=O)O)c(C)n2C(=O)c1ccc(Cl)cc1 [Indomethacin] — higher, 159 °C
- Nc1ccc(C/C(=N/O)c2ccc(N)cc2)cc1 [(1Z)-1,2-bis(4-aminophenyl)ethanone oxime] — higher, 147 °C
- ClCC(Cl)(Cl)Cl [1,1,1,2-tetrachloroethane] — lower, -70 °C
- Nc1ccccc1[N+](=O)[O-] [2-nitroaniline] — lower, 72 °C
- CC(=O)c1ccc(C)c([N+](=O)[O-])c1 [4'-methyl-3'-nitroacetophenone] — lower, 60 °C
- Nc1c(Cl)cccc1Cl [2,6-dichloroaniline] — lower, 40 °C

With `O=Cc1ccccc1` [benzaldehyde] the melting point was -56.5 °C and -55.6 °C.

Reference: the Bradley open melting point set (2014)
